Source: paper PMC10283505, “CVM-1118 (foslinanib), a 2-phenyl-4-quinolone derivative, promotes apoptosis and inhibits vasculogenic mimicry via targeting TRAP1” (Pathology and Oncology Research, 2023)

How the values were obtained:
[1] = system: HIF-1α; test: Western blot of HIF-1α protein (hypoxia); assay type: cell-based, human; details: hypoxia 72 h
Method: Changes in the expression HIF-1α protein in SK-MEL28, SK-OV3, MDA-MB-231 and COLO205 cells in response to treatment with CVM-1125 was performed as follows: 5.0 × 10^6 cells were grown under hypoxic conditions (as previously described) for 72 h, with or without 100 nM CVM-1125 in T175 culture flasks, then sub-confluent cultures harvested and whole cell protein lysates prepared and analyzed by Western blot (as above). Thirty micrograms of protein was loaded per lane of the gel for each sample followed by detection of HIF-1α protein on the final blot using a polyclonal rabbit anti- HIF-1α antibody (#3716; Cell Signaling Technologies), secondary antibody plus HRP (NA934V), then ECL. The blots were then stripped and re-probed for β-actin protein as a control (as above).

[2] = target: GADD45GIP1 (Homo sapiens, UniProt Q8TAE8); test: Surface plasmon resonance (Biacore); assay type: binding; details: GADD45GIP1, SPR
[3] = system: HCT-116 cells; test: Flow cytometry cell cycle analysis (PI); assay type: cell-based, human; details: HCT-116, 48 hours, dose-response
Method: Figure S2 CVM-1125 induced cell cycle arrest at G2/M in HCT-116 cells
Dose-response of CVM-1125 on cell cycle profile in HCT-116 cells was assessed by flow cytometry after treatment for 48 hours. Fluorescent signals of propidium iodide (FL2-A) of single cells were attributed to cell cycle phases and converted into percentage of the whole population of single cells (100%). The data shown are representative of at least three independent experiments.
(1 picture or pasted object on this page, not shown here)

[4] = target: T1, CEACAM5 (Homo sapiens, UniProt P06731); test: Surface plasmon resonance (Biacore); assay type: binding; details: CEACAM5, SPR
T1 sequence (P06731 35-702): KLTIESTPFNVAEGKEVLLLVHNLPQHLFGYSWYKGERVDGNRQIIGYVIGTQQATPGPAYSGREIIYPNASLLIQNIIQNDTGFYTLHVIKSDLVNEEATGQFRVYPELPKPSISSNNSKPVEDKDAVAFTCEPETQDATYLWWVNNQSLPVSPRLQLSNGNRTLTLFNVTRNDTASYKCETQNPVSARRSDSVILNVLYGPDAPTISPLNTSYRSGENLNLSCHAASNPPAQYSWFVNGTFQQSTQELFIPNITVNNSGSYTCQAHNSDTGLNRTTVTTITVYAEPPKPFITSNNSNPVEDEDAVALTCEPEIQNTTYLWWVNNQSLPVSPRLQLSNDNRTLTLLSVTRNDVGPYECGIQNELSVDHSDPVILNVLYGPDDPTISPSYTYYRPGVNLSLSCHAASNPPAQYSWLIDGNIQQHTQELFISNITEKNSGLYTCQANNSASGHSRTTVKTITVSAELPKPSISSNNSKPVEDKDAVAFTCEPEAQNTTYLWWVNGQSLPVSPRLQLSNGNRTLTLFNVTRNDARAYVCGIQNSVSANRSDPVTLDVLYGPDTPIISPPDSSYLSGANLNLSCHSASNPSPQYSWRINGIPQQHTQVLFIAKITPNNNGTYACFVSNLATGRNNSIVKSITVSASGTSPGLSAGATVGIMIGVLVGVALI

[5] = system: HOP-62; test: NCI 60 cytotoxicity screening; assay type: cell-based; details: Homo sapiens; HOP-62, NSCLC
[6] = system: human melanoma (C8161) cells; test: In vitro VM assay (3D Matrigel tubular network); assay type: cell-based; details: 24 h
Method: Aggressive human melanoma (C8161) cells were seeded at 1.0 × 10^5 onto 3D polymerized LDEV-free Matrigel (75 μL; 14 mg/ml; Corning Cat. No. 356232) for VM analysis in 12-well dishes containing no drug or various concentrations of CVM-1118. Matrigel-coated dishes were photographed for tubular network formation after 24 h.

[7] = system: Smad2/P-Smad2; test: Western blot of P-Smad2/Smad2; assay type: cell-based, human; details: C8161, 10 nM, 24 h, relative to β-actin, against control
Method: Cells at 80% confluence were rinsed with PBS, harvested by scrapping into a modified RIPA buffer plus protease inhibitor cocktail using 100 μL buffer per 1 × 10^6 cells. After sonication and centrifugation, the protein concentrations in the supernatants were determined using a BCA assay (Thermo Fisher Scientific). […] Nodal was detected using a mouse monoclonal anti-Nodal antibody (sc-373910; Santa Cruz; 1 μg/ml in 20 mM Tris/150 mM NaCl/0.1% [w/v] Tween 20, pH 7.4 [TBST] plus 5% BSA) followed by an anti-mouse plus horseradish peroxidase (HRP) secondary antibody (NXA931; GE Healthcare; 1 μg/ml in TBST plus 5% BSA) and enhanced chemiluminescence (ECL; GE Healthcare). Smad2 was detected using a rabbit polyclonal anti-Smad2/3 antibody (07-408; Millipore; 1 μg/ml in TBST plus 5% BSA) followed by an anti-rabbit plus HRP secondary antibody (NA934V; GE Healthcare; 1 μg/ml in TBST plus 5% BSA) and ECL. […] To assess relative changes in protein expression, the exposed films were digitized using a ChemiDoc XRS imager (Bio-Rad Laboratories) and the relative amount of protein determined against the untreated control cells normalized to a value of 1.0 using the imager’s Quantity One software package (Bio-Rad Laboratories) and corrected for loading of protein into each lane against the β-actin protein measured in the control lane.

SMILES | reduction of HIF-1α protein levels ([1]; COLO205, 100 nM) [%] | reduction of HIF-1α protein levels ([1]; MDA-MB-231, 100 nM) [%] | reduction of HIF-1α protein levels ([1]; SK-MEL28, 100 nM) [%] | reduction of HIF-1α protein levels ([1]; SKOV3, 100 nM) [%] | Association (ka) [2] | Dissociation (kd) [2] | KD (kd/ka) [2] | Effect on cell cycle profile [3] | Association (ka) [4] | Dissociation (kd) [4] | KD (kd/ka) [4] | GI50 [5] [nM] | VM (in vitro) tubular network formation ([6]; C8161, 5 nM) | VM (in vitro) tubular network formation ([6]; C8161, 10 nM) | VM (in vitro) tubular network formation ([6]; C8161, 50 nM) | reduction in the ratio of P-Smad2 to Smad2 protein level [7] [%]
COc1ccc2[nH]c(-c3cccc(F)c3)cc(=O)c2c1O [CVM-1125] | 9 | 17 | 28 | 25 | No interaction | No interaction | No interaction | G2/M arrest and increased sub-G1 | No interaction | No interaction | No interaction | 49.6 | – | – | – | –
COc1ccc2[nH]c(-c3cccc(F)c3)cc(=O)c2c1OP(=O)(O)O [CVM-1118] | – | – | – | – | – | – | – | – | – | – | – | – | disrupted | significantly inhibited | significantly inhibited | 76
